Earlier results on one compound are cited in patent US20120184023A1, “Method of Preparing A Glycoside Of A Mono- Or Diacylglycerol Product From A Plant Material” (HYBEN VITAL LICENS APS, priority 2006, published 2012).

SMILES strings stand for the structures.

The subject of data set [1] is poly-morphonuclear monocytes. The conditions noted are these: reported in WO 03/043613.
The subject of a further data set is mononuclear leukocytes. The note with it: reported in WO 03/043613.

On to `CC/C=C\C/C=C\C/C=C\CCCCCCCC(=O)OCC(CO[C@@H]1O[C@H](CO)[C@H](O)[C@H](O)[C@H]1O)OC(=O)CCCCCCC/C=C\C/C=C\C/C=C\CC` (stereo partly drawn) [GOPO, 3-β-D-galactopyranosyloxy-2-(octadeca-9Z,12Z,15Z-trienoyloxy) propanyloctadeca-9Z,12Z,15Z-trienoate], for which the “chemiluminescence of poly-morphonuclear monocytes” value in data set [1] is recorded as “alleviating chemiluminescence”. For the same compound, the “chemotaxis of mononuclear leukocytes” value in the data set on mononuclear leukocytes is reported as “alleviating”.
